Experimental data reported in patent US20240293413A1, “COMPOUND AND METHOD FOR TREATING CHEMOTHERAPY-RELATED GASTROINTESTINAL SIDE EFFECTS” (ONQUALITY PHARMACEUTICALS CHINA LTD., priority 2021, published 2024).

Tests used:
Type in all cases: in vivo
[1] = tested on: Chemotherapeutic agent-caused constipation models of Balb/c mice; assay: Examples 272-342 (Table 5): oral CDK inhibitor, relief of constipation caused by a chemotherapeutic agent;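 further: percent of treated mice relieved versus chemotherapy group by feces reduction rate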
Method in brief: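 Feces reduction rate (%) = (control − treated)/control × 100%, based on the 3-hour feces amount recorded each day. Groups of 10 Balb/c mice received solvent, chemotherapeutic agent alone, or an oral CDK inhibitor before the chemotherapeutic agent.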

[2] = tested on: diarrhea caused by a chemotherapeutic agent in Balb/c mice; assay: Examples 230-271 (Table 4): oral CDK inhibitor, relief of diarrhea caused by a chemotherapeutic agent
Method in brief: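 Balb/c mice, 10 per group (vehicle, chemotherapeutic agent, CDK inhibitor plus chemotherapeutic); CDK inhibitor dosed intragastrically before the chemotherapeutic agent by injection or gavage. Diarrhea graded daily.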

[3] = tested on: diarrhea caused by a chemotherapeutic agent in Balb/c mice; assay: Examples 382-405 (Table 7): various administration modes of the CDK inhibitor, relief of diarrhea caused by a chemotherapeutic agent
Text: Balb/c mice were fed for 1 week, and then divided into groups. The experiment was divided into a control group, a chemotherapeutic agent group, CDK inhibitor groups (including an oral administration group of a CDK inhibitor, an intraperitoneal injection group of a CDK inhibitor, an intramuscular injection group of a CDK inhibitor, a local administration group of a CDK inhibitor), each of which comprised 10 mice, to perform the administration experiment, for which the administration dosage, mode, time and frequency were shown in Table 7. The control group: being administered with the same solvent as that used in the CDK inhibitor group (the time and mode were shown in Table 7), and then being injected/intragastrically administered with the same solvent as that used in the chemotherapeutic agent group (the administration mode was shown in Table 7): the chemotherapeutic agent group: being administered with the same solvent as that used in the CDK inhibitor group (the time and mode were shown in Table 7), and then being injected/intragastrically administered with the chemotherapeutic agent (the type, administration mode and dosage were shown in Table 7): the oral administration group of the CDK inhibitor: being intragastrically administered with the CDK inhibitor (the time was shown in Table 7), and then being administered with the chemotherapeutic agent (the mode and dosage were shown in Table 7): the intraperitoneal injection group of the CDK inhibitor: being intraperitoneally injected with the CDK inhibitor (the time was shown in Table 7), and then being administered with the chemotherapeutic agent (the mode and dosage were shown in Table 7): the intramuscular injection group of the CDK inhibitor: being intramuscularly injected with the CDK inhibitor (the time was shown in Table 7), and then being administered with the chemotherapeutic agent (the mode and dosage were shown in Table 7); and the local administration group of the CDK inhibitor: the hair on the abdomen of mice was shaved (about 2 cm*2 cm), being applied with the CDK inhibitor (the time was shown in Table 7), and then being administered with the chemotherapeutic agent (the mode and dosage were shown in Table 7).
The diarrhea grading of mice was observed and recorded every day.

SMILES: CN(C)C(=O)c1cc2cnc(Nc3ccc(N4CCNCC4)cn3)nc2n1C1CCCC1 [Ribociclib]
- Relative remission rate ([1]; Example 294, Fluorouracil (5-Fu) intravenous injection 225 mg/kg single, CDK inhibitor oral 150 mg/kg single, 0.5 h before, cycle 7 days): 50%
- Relative remission rate ([1]; Example 302, Oxaliplatin intravenous injection 20 mg/kg single, CDK inhibitor oral 150 mg/kg single, 1 h before, cycle 8 days): 50%
- Relative remission rate ([1]; Example 310, Irinotecan (CPT-11) oral administration 300 mg/kg single, CDK inhibitor oral 100 mg/kg single, 20 h before, cycle 11 days): 50%
- Relative remission rate ([1]; Example 325, Gemcitabine and paclitaxel intravenous injection 60 (G) 10 (P) mg/kg single, CDK inhibitor oral 125 mg/kg single, 0.5 h before, cycle 8 days): 50%
- Relative remission rate ([1]; Example 336, Methotrexate (MTX) intravenous injection 300 mg/kg single, CDK inhibitor oral 125 mg/kg single, 0.5 h before, cycle 7 days): 40%
- Relative remission rate ([1]; Example 337, Methotrexate (MTX) intravenous injection 300 mg/kg single, CDK inhibitor oral 125 mg/kg single, 4 h before, cycle 7 days): 40%
- Relative remission rate ([1]; Example 338, Methotrexate (MTX) intravenous injection 300 mg/kg single, CDK inhibitor oral 125 mg/kg single, 8 h before, cycle 7 days): 50%
- Relative remission rate ([1]; Example 339, Methotrexate (MTX) intravenous injection 300 mg/kg single, CDK inhibitor oral 125 mg/kg single, 12 h before, cycle 7 days): 30%
- Relative remission rate ([1]; Example 340, Methotrexate (MTX) intravenous injection 300 mg/kg single, CDK inhibitor oral 125 mg/kg single, 24 h before, cycle 7 days): 60%
- Relative remission rate ([1]; Example 341, Methotrexate (MTX) intravenous injection 300 mg/kg single, CDK inhibitor oral 125 mg/kg single, 48 h before, cycle 7 days): 0%
- Relative remission rate ([2]; Example 243, Methotrexate (MTX) intravenous injection 300 mg/kg single, CDK inhibitor oral 125 mg/kg single, 0.5 h before, cycle 7 days): 80%
- Relative remission rate ([2]; Example 244, Methotrexate (MTX) intravenous injection 300 mg/kg single, CDK inhibitor oral 125 mg/kg single, 4 h before, cycle 7 days): 60%
- Relative remission rate ([2]; Example 245, Methotrexate (MTX) intravenous injection 300 mg/kg single, CDK inhibitor oral 125 mg/kg single, 8 h before, cycle 7 days): 80%
- Relative remission rate ([2]; Example 246, Methotrexate (MTX) intravenous injection 300 mg/kg single, CDK inhibitor oral 125 mg/kg single, 12 h before, cycle 7 days): 40%
- Relative remission rate ([2]; Example 247, Methotrexate (MTX) intravenous injection 300 mg/kg single, CDK inhibitor oral 125 mg/kg single, 24 h before, cycle 7 days): 60%
- Relative remission rate ([2]; Example 248, Methotrexate (MTX) intravenous injection 300 mg/kg single, CDK inhibitor oral 125 mg/kg single, 48 h before, cycle 7 days): 0%
- Relative remission rate ([2]; Example 251, Methotrexate (MTX) intraperitoneal injection 260 mg/kg single, CDK inhibitor oral 200 mg/kg single, 12 h before, cycle 7 days): 50%
- Relative remission rate ([2]; Example 252, Methotrexate (MTX) intraperitoneal injection 260 mg/kg single, CDK inhibitor oral 200 mg/kg single, 48 h before, cycle 7 days): 0%
- Relative remission rate ([2]; Example 269, Vinorelbine (NVB) oral administration 15 mg/kg single, CDK inhibitor oral 100 mg/kg single, 24 h before, cycle 11 days): 50%
- Relative remission rate of other administration mode ([3]; Example 389, Carboplatin (CBP) intraperitoneal injection 120 mg/kg single, CDK inhibitor intraperitoneal injection 200 mg/kg single, 0.5 h before, cycle 10 days): 10%
- Relative remission rate of oral administration ([3]; Example 389, Carboplatin (CBP) intraperitoneal injection 120 mg/kg single, CDK inhibitor oral 200 mg/kg single, 0.5 h before, cycle 10 days): 30%
- Relative remission rate of other administration mode ([3]; Example 390, Carboplatin (CBP) intraperitoneal injection 120 mg/kg single, CDK inhibitor intraperitoneal injection 200 mg/kg single, 4 h before, cycle 10 days): 10%
- Relative remission rate of oral administration ([3]; Example 390, Carboplatin (CBP) intraperitoneal injection 120 mg/kg single, CDK inhibitor oral 200 mg/kg single, 4 h before, cycle 10 days): 50%
- Relative remission rate of other administration mode ([3]; Example 391, Carboplatin (CBP) intraperitoneal injection 120 mg/kg single, CDK inhibitor intraperitoneal injection 200 mg/kg single, 8 h before, cycle 10 days): 10%
- Relative remission rate of oral administration ([3]; Example 391, Carboplatin (CBP) intraperitoneal injection 120 mg/kg single, CDK inhibitor oral 200 mg/kg single, 8 h before, cycle 10 days): 50%
- Relative remission rate of other administration mode ([3]; Example 392, Carboplatin (CBP) intraperitoneal injection 120 mg/kg single, CDK inhibitor intraperitoneal injection 200 mg/kg single, 12 h before, cycle 10 days): 20%
- Relative remission rate of oral administration ([3]; Example 392, Carboplatin (CBP) intraperitoneal injection 120 mg/kg single, CDK inhibitor oral 200 mg/kg single, 12 h before, cycle 10 days): 40%
- Relative remission rate of other administration mode ([3]; Example 393, Carboplatin (CBP) intraperitoneal injection 120 mg/kg single, CDK inhibitor intraperitoneal injection 200 mg/kg single, 24 h before, cycle 10 days): 10%
- Relative remission rate of oral administration ([3]; Example 393, Carboplatin (CBP) intraperitoneal injection 120 mg/kg single, CDK inhibitor oral 200 mg/kg single, 24 h before, cycle 10 days): 40%
- Relative remission rate of other administration mode ([3]; Example 401, Gemcitabine (GEM) oral administration 300 mg/kg single, CDK inhibitor local administration 100 mg/kg single, 24 h before, cycle 8 days): 20%
- Relative remission rate of oral administration ([3]; Example 401, Gemcitabine (GEM) oral administration 300 mg/kg single, CDK inhibitor oral 100 mg/kg single, 24 h before, cycle 8 days): 50%
- relief of diarrhea by oral, injection and local administration ([3]; diarrhea caused by docetaxel, carboplatin, gemcitabine, and gemcitabine plus carboplatin, under certain conditions, effect of oral administration most significant): can relieve diarrhea
